This note sets out measurements from publication PMC8682738, “Constrained peptides mimic a viral suppressor of RNA silencing” (Nucleic Acids Research, 2021).

Positions of bridges follow the written chain, without caps; N, C: chain ends. Non-standard residues stand in square brackets, D forms with d. Residues, ends and D or L forms follow the SMILES beside them. *: point of attachment. FITC = O=C1OC2(c3ccc(O)cc3Oc3cc(O)ccc32)c2ccc(NC(=S)*)cc21; S5 = C=CCCC[C@](C)(N)C(=O)O; AEEA = NCCOCCOCC(=O)O

Data set [1] in a line: CD spectroscopy, secondary structure content. It is filed as physicochemical. Particulars: fluorescein-labeled peptide 75 μM, 10 mM sodium phosphate pH 7.4, CDNN/PEPFIT; for Helix (α-helicity): unbound. How it is done: Spectra of fluorescein-labeled peptides were recorded with a J-715 circular dichroism spectrometer (Jasco) using a stoppered quartz cuvette (1 mm; Hellma). Peptide samples (c = 75 μM) were prepared in buffer: 10 mM disodium hydrogen phosphate, pH 7.4. For each sample, 10 CD spectra were measured between λ = 190 and 260 nm with continuous scan mode (10 mdeg sensitivity, 1.0 nm resolution, 1.0 nm bandwidth, 2 s integration time, 50 nm/min scan rate). Obtained spectra were averaged, then subtracted from a reference buffer spectrum and smoothed using a fast Fourier transform filter (FFT filter). The mean residue ellipticity (Θ) (deg·cm^2·dmol^−1·10^4) was calculated using Formula (2) and plotted against wavelength (λ) (nm). The ratio of secondary structure elements was calculated with CDNN using the PEPFIT set of reference spectra for secondary structure determination ([45],[46]):(2) where [Θ]m = mean molar ellipticity per peptide bond (degree·cm^2·dmol^−1·10^4), Θ = measured ellipticity (degree), d = optical path length (cm), cg = mass concentration (g·l^−1), MRW = mean residue weight, M = molar mass of the peptide (g·mol^−1) and N = number of peptide bonds.

The target of a further data set is proteinase K (Parengyodontium album, UniProt P06873). Nature of the data set: Protease stability assay. It counts as in vitro ADME. The settings on record: proteinase K 10 μg·ml^−1, fluorescein-labeled peptide 50 μM, 10 mM Tris pH 8.0, 150 mM NaCl, room temperature, HPLC absorbance 210 nm, exponential decay fit. As to the method: Protease stability assays were performed in analogy to a previously published protocol ([47]). Stocks of fluorescein-labeled peptides were prepared to a concentration of 55.5 μM in assay buffer (10 mM Tris, pH 8.0, 150 mM NaCl) and separately stocks of proteinase K also in assay buffer (c = 100 μg·ml^−1). To begin each experiment, peptide and proteinase K stocks were mixed (final concentrations: c = 10 μg·ml^−1 proteinase K, c = 50 μM fluorescein-labeled peptide; final volume = 500 μl) and incubated at room temperature. At each time point, 50 μl of the reaction mixture was quenched by adding 100 μl of TFA/ACN/H2O (v/v/v, 1:49:49) and subsequently incubated for 2 min on ice. Following centrifugation (15 min, 13200 rpm, 4°C), samples (45 μl) were monitored by analytical HPLC using a linear gradient of 10–60% HPLC solvent B over 20 min. The amount of remaining peptide was quantified via absorbance at λ = 210 nm (intact peptide (%)) and plotted against time (t) (h). Half-life (t1/2) was calculated by fitting the data to an exponential decay using the software Prism 5.0 (GraphPad).
proteinase K, sequence (P06873 106-384): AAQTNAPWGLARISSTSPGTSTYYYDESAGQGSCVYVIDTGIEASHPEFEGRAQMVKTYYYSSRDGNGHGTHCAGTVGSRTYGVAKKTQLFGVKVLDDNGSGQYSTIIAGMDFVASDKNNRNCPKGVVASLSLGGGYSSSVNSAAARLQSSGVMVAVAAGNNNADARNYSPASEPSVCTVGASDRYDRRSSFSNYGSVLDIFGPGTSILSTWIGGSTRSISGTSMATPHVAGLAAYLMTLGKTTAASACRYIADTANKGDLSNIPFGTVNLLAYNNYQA

For `CC(C)C[C@@H]1NC(=O)[C@@](C)(NC(=O)[C@H](CO)NC(=O)[C@H](CCCNC(=N)N)NC(=O)[C@H](CCCNC(=N)N)NC(=O)[C@H](CCC(N)=O)NC(=O)[C@H](CCC(=O)O)NC(=O)[C@H](CO)NC(=O)[C@@H]2CCCN2C(=O)[C@H](CO)NC(=O)[C@H](CCCCN)NC(=O)[C@H](Cc2c[nH]cn2)NC(=O)CNC(=O)[C@H](CCCNC(=N)N)NC(=O)[C@H](CCC(=O)O)NC(=O)[C@H](CCCCN)NC(=O)[C@H](CCCNC(=N)N)NC(=O)[C@H](CC(N)=O)NC(=O)[C@]2(C)CCCC=CCCC[C@](C)(NC(=O)[C@H](CCCNC(=N)N)NC(=O)[C@H](CCC(N)=O)NC(=O)[C@H](C)NC(=O)[C@H](CCC(N)=O)NC(=O)[C@H](CCCCN)NC(=O)[C@H](CCCCN)NC(=O)COCCOCCNC(=S)Nc3ccc4c(c3)C(=O)OC43c4ccc(O)cc4Oc4cc(O)ccc43)C(=O)N[C@@H](CCCNC(=N)N)C(=O)N[C@@H](Cc3c[nH]cn3)C(=O)N[C@@H](CCCCN)C(=O)N2)CCCC=CCCC[C@@](C)(C(=O)N[C@@H](CCCNC(=N)N)C(N)=O)NC(=O)[C@H](Cc2c[nH]cn2)NC(=O)[C@H](Cc2c[nH]c3ccccc23)NC1=O` [C2] ({FITC-AEEA}-KKQAQR[S5]RHK[S5]NRKERGHKSPSEQRRS[S5]LWH[S5]R-NH2; staple 7-11, 28-32), in data set [1], the Random coil was found to be 41.6%, the β-Sheet is listed as 3.3%, the β-Turn is 4.2% and the “Helix (α-helicity)” value worked out at 61.8%. At proteinase K, the “Half-life (t1/2)” value came to 7.33 h.
For the compound `CC(C)C[C@H](NC(=O)[C@H](CCCCN)NC(=O)[C@H](Cc1c[nH]cn1)NC(=O)[C@H](CCCNC(=N)N)NC(=O)[C@H](CCCCN)NC(=O)[C@H](CCCNC(=N)N)NC(=O)[C@H](CCC(N)=O)NC(=O)[C@H](C)NC(=O)[C@H](CCC(N)=O)NC(=O)[C@H](CCCCN)NC(=O)[C@H](CCCCN)NC(=O)COCCOCCNC(=S)Nc1ccc2c(c1)C(=O)OC21c2ccc(O)cc2Oc2cc(O)ccc21)C(=O)N[C@@H](CC(N)=O)C(=O)N[C@@H](CCCNC(=N)N)C(=O)N[C@@H](CCCCN)C(=O)N[C@@H](CCC(=O)O)C(=O)N[C@@H](CCCNC(=N)N)C(=O)NCC(=O)N[C@@H](Cc1c[nH]cn1)C(=O)N[C@@H](CCCCN)C(=O)N[C@@H](CO)C(=O)N1CCC[C@H]1C(=O)N[C@@H](CO)C(=O)N[C@@H](CCC(=O)O)C(=O)N[C@@]1(C)CCCC=CCCC[C@@](C)(C(=O)N[C@@H](CC(C)C)C(=O)N[C@@H](Cc2c[nH]c3ccccc23)C(=O)N[C@@H](Cc2c[nH]cn2)C(=O)N[C@@H](C)C(=O)N[C@@H](CCCNC(=N)N)C(N)=O)NC(=O)[C@H](CO)NC(=O)[C@H](CCCNC(=N)N)NC(=O)[C@H](CCCNC(=N)N)NC1=O` [B] ({FITC-AEEA}-KKQAQRKRHKLNRKERGHKSPSE[S5]RRS[S5]LWHAR-NH2; staple 24-28), in data set [1], the Random coil was 46.0%, the β-Sheet is reported as 6.8%, the β-Turn is given as 13.9% and the “Helix (α-helicity)” value was 30.5%. In addition, the “Half-life (t1/2)” value at proteinase K turned out to be 1.08 h.
Taken in the same sequence, the figures for `CC(C)C[C@@H]1NC(=O)[C@@](C)(NC(=O)[C@H](CO)NC(=O)[C@H](CCCNC(=N)N)NC(=O)[C@H](CCCNC(=N)N)NC(=O)[C@H](CCC(N)=O)NC(=O)[C@H](CCC(=O)O)NC(=O)[C@H](CO)NC(=O)[C@@H]2CCCN2C(=O)[C@H](CO)NC(=O)[C@H](CCCCN)NC(=O)[C@H](Cc2c[nH]cn2)NC(=O)CNC(=O)[C@H](CCCNC(=N)N)NC(=O)[C@]2(C)CCCC=CCCC[C@](C)(NC(=O)[C@H](CCCCN)NC(=O)[C@H](Cc3c[nH]cn3)NC(=O)[C@H](CCCNC(=N)N)NC(=O)[C@H](CCCCN)NC(=O)[C@H](CCCNC(=N)N)NC(=O)[C@H](CCC(N)=O)NC(=O)[C@H](C)NC(=O)[C@H](CCC(N)=O)NC(=O)[C@H](CCCCN)NC(=O)[C@H](CCCCN)NC(=O)COCCOCCNC(=S)Nc3ccc4c(c3)C(=O)OC43c4ccc(O)cc4Oc4cc(O)ccc43)C(=O)N[C@@H](CC(N)=O)C(=O)N[C@@H](CCCNC(=N)N)C(=O)N[C@@H](CCCCN)C(=O)N2)CCCC=CCCC[C@@](C)(C(=O)N[C@@H](CCCNC(=N)N)C(N)=O)NC(=O)[C@H](Cc2c[nH]cn2)NC(=O)[C@H](Cc2c[nH]c3ccccc23)NC1=O` [C3] ({FITC-AEEA}-KKQAQRKRHK[S5]NRK[S5]RGHKSPSEQRRS[S5]LWH[S5]R-NH2; staple 11-15, 28-32) were 37.0%, 4.3%, 6.2%, 59.3% and 5.05 h.
Taken in the same sequence, the figures for `CC(C)C[C@H](NC(=O)[C@]1(C)CCCC=CCCC[C@](C)(NC(=O)[C@H](CCC(=O)O)NC(=O)[C@H](CO)NC(=O)[C@@H]2CCCN2C(=O)[C@H](CO)NC(=O)[C@H](CCCCN)NC(=O)[C@H](Cc2c[nH]cn2)NC(=O)CNC(=O)[C@H](CCCNC(=N)N)NC(=O)[C@H](CCC(=O)O)NC(=O)[C@H](CCCCN)NC(=O)[C@H](CCCNC(=N)N)NC(=O)[C@H](CC(N)=O)NC(=O)[C@]2(C)CCCC=CCCC[C@](C)(NC(=O)[C@H](CCCNC(=N)N)NC(=O)[C@H](CCC(N)=O)NC(=O)[C@H](C)NC(=O)[C@H](CCC(N)=O)NC(=O)[C@H](CCCCN)NC(=O)[C@H](CCCCN)NC(=O)COCCOCCNC(=S)Nc3ccc4c(c3)C(=O)OC43c4ccc(O)cc4Oc4cc(O)ccc43)C(=O)N[C@@H](CCCNC(=N)N)C(=O)N[C@@H](Cc3c[nH]cn3)C(=O)N[C@@H](CCCCN)C(=O)N2)C(=O)N[C@@H](CCCNC(=N)N)C(=O)N[C@@H](CCCNC(=N)N)C(=O)N[C@@H](CO)C(=O)N1)C(=O)N[C@@H](Cc1c[nH]c2ccccc12)C(=O)N[C@@H](Cc1c[nH]cn1)C(=O)N[C@@H](C)C(=O)N[C@@H](CCCNC(=N)N)C(N)=O` [B2] ({FITC-AEEA}-KKQAQR[S5]RHK[S5]NRKERGHKSPSE[S5]RRS[S5]LWHAR-NH2; staple 7-11, 24-28) were 12.5%, 2.4%, 10.3%, 82.2% and 8.93 h.
The matching figures for `CC(C)C[C@H](NC(=O)[C@H](CCCCN)NC(=O)[C@H](Cc1c[nH]cn1)NC(=O)[C@H](CCCNC(=N)N)NC(=O)[C@H](CCCCN)NC(=O)[C@H](CCCNC(=N)N)NC(=O)[C@H](CCC(N)=O)NC(=O)[C@H](C)NC(=O)[C@H](CCC(N)=O)NC(=O)[C@H](CCCCN)NC(=O)[C@H](CCCCN)NC(=O)COCCOCCNC(=S)Nc1ccc2c(c1)C(=O)OC21c2ccc(O)cc2Oc2cc(O)ccc21)C(=O)N[C@@H](CC(N)=O)C(=O)N[C@@H](CCCNC(=N)N)C(=O)N[C@@H](CCCCN)C(=O)N[C@@H](CCC(=O)O)C(=O)N[C@@H](CCCNC(=N)N)C(=O)NCC(=O)N[C@@H](Cc1c[nH]cn1)C(=O)N[C@@H](CCCCN)C(=O)N[C@@H](CO)C(=O)N1CCC[C@H]1C(=O)N[C@@H](CO)C(=O)N[C@@H](CCC(=O)O)C(=O)N[C@@H](CCC(N)=O)C(=O)N[C@@H](CCCNC(=N)N)C(=O)N[C@@H](CCCNC(=N)N)C(=O)N[C@@H](CO)C(=O)N[C@@]1(C)CCCC=CCCC[C@@](C)(C(=O)N[C@@H](CCCNC(=N)N)C(N)=O)NC(=O)[C@H](Cc2c[nH]cn2)NC(=O)[C@H](Cc2c[nH]c3ccccc23)NC(=O)[C@H](CC(C)C)NC1=O` [C] ({FITC-AEEA}-KKQAQRKRHKLNRKERGHKSPSEQRRS[S5]LWH[S5]R-NH2; staple 28-32): 63.6%, 2.8%, 7.6%, 28.4% and 1.3 h.
